The values that follow come from US7345035B2, “Treatment of osteoporosis and autoimmune disease with astrogorgiadiol” (University of Delaware, priority 2003, dated 2008).

One experiment relates to osteopontin mRNA. Kind of experiment: Northern blot of osteopontin mRNA in ROS 17/2.8 cells. Format: cell-based. The method, then: Changes in levels of mRNA encoding osteopontin induced by astrogorgiadiol were studied by Northern blot. Northern blot analysis was performed as described in Farach-Carson American Journal of Physiology 265: F705-F711 (1993), modified to include varying concentrations of astrogorgiadiol.
Briefly, […] cells were treated with 1 nM 1, 25 (OH)2vitD3 (BIOMOL Research Laboratories Inc., Plymouth Meeting, Pa.) or 1 nM 1, 25 (OH)2 vitD3 and 3 nM, 30 nM or 300 nM astrogorgiadiol for 0, 3 or 24 hours prior to harvest or with 3 nM, 30 nM or 300 nM astrogorgiadiol. mRNA was extracted using standard techniques. Osteopontin mRNA was detected using a ^32P-labeled osteopontin cDNA probe.

A further experiment deals with starfish eggs. The settings on record: cited from earlier work.

`C=C1/C(=C\C=C2/CCC[C@]3(C)[C@@H]([C@H](C)CCCC(C)(C)O)CC[C@@H]23)C[C@@H](O)C[C@@H]1O` [1,25 (OH)2 vitD3, reference compound]: the “osteopontin mRNA level (Northern blot)” value in the experiment with osteopontin mRNA (ROS 17/2.8 cells, 1 nM 1,25 (OH)2 vitD3, 0, 3 or 24 hours prior to harvest) is reported as “increased osteopontin mRNA”.
Consider `Cc1ccc(O)cc1CC[C@@H]1[C@H](O)CC[C@]2(C)[C@@H]([C@H](C)CCCC(C)C)CC[C@@H]12` [astrogorgiadiol, Astrogorgiadiol], for which the “1,25 (OH)2 vitD3-induced osteopontin mRNA level (Northern blot)” value in the experiment with osteopontin mRNA (3 nM astrogorgiadiol with 1 nM 1,25 (OH)2 vitD3, ROS 17/2.8 cells) is on record as “decreased 1,25 (OH)2 vitD3-induced osteopontin mRNA to levels approaching control levels”. Moreover, the “osteopontin mRNA level (Northern blot)” value in the experiment on osteopontin mRNA (30 nM astrogorgiadiol with 1 nM 1,25 (OH)2 vitD3, ROS 17/2.8 cells) is reported as “decreased the level of osteopontin mRNA below control levels”; in the experiment with osteopontin mRNA (300 nM astrogorgiadiol with 1 nM 1,25 (OH)2 vitD3, ROS 17/2.8 cells), “decreased the level of osteopontin mRNA below control levels”. Moreover, in the experiment with osteopontin mRNA (ROS 17/2.8 cells, 3 nM, 30 nM or 300 nM astrogorgiadiol, with 1 nM 1,25 (OH)2 vitD3), the “osteopontin mRNA level (Northern blot), dose dependence” value is given as “downregulated osteopontin mRNA in a dose-dependent manner”. For the same compound, in the experiment with osteopontin mRNA (in cells in vitro), the “concentration effective to downregulate osteopontin RNA production” value was in the range of 3 to 300 nM. Further, in the experiment with starfish eggs, the “cell division of starfish eggs” value is “inhibit cell division of starfish eggs”.
